Results taken from ChEMBL document CHEMBL2331518, “Rapid microwave-enhanced synthesis of C5-alkynyl pyranonucleosides as novel cytotoxic antitumor agents” (Bioorg Med Chem Lett, 2013).
The source made the active and inactive calls. The calls are words filed in the database; no cut-off is given here.

Tests used:
[1] = system: HeLa; experiment: Cytotoxicity against human HeLa cells after 72 hrs; assay type: functional, cell-based
[2] = system: L1210; experiment: Cytotoxicity against mouse L1210 cells after 48 hrs; assay type: functional, cell-based; conditions: L1210, 48 h
[3] = system: CCRF-CEM; experiment: Cytotoxicity against human CEM cells after 72 hrs; assay type: functional, cell-based
[4] = system: Human immunodeficiency virus 2; experiment: Antiviral activity against HIV2 ROD infected in human CEM cells assessed as reduction of virus-induced cytopathicity after 4 to 5 days; assay type: functional, organism-based; conditions: ISOLATE ROD, CCRF-CEM
[5] = system: Human immunodeficiency virus 1; experiment: Antiviral activity against HIV1 3B infected in human CEM cells assessed as reduction of virus-induced cytopathicity after 4 to 5 days; assay type: functional, organism-based; conditions: CCRF-CEM
[6] = system: Punta Toro virus; experiment: Antiviral activity against Punta Toro virus by cell based assay; assay type: functional, organism-based
[7] = system: Mammalian orthoreovirus 1; experiment: Antiviral activity against Reovirus-1 by cell based assay; assay type: functional, organism-based
[8] = system: Influenza B virus; experiment: Antiviral activity against Influenza B virus by cell based assay; assay type: functional, organism-based
[9] = system: Influenza A virus; experiment: Antiviral activity against Influenza A virus H3N2 by cell based assay; assay type: functional, organism-based
[10] = system: Sindbis virus; experiment: Antiviral activity against Sindbis virus by cell based assay; assay type: functional, organism-based
[11] = system: Influenza A virus; experiment: Antiviral activity against Influenza A virus H1N1 by cell based assay; assay type: functional, organism-based
[12] = system: Human respirovirus 3; experiment: Antiviral activity against Parainfluenza-3 virus by cell based assay; assay type: functional, organism-based
[13] = system: Coxsackievirus B4; experiment: Antiviral activity against Coxsackie virus B4 by cell based assay; assay type: functional, organism-based
[14] = system: Vesicular stomatitis virus; experiment: Antiviral activity against Vesicular stomatitis virus by cell based assay; assay type: functional, organism-based
[15] = system: Respiratory syncytial virus; experiment: Antiviral activity against Respiratory syncytial virus Long by cell based assay; assay type: functional, organism-based
[16] = system: Vaccinia virus; experiment: Antiviral activity against Vaccinia virus Lederle by cell based assay; assay type: functional, organism-based; conditions: Orthopoxvirus vaccinia
[17] = system: Human alphaherpesvirus 2; experiment: Antiviral activity against HSV-2 G by cell based assay; assay type: functional, organism-based; conditions: strain G
[18] = system: Human alphaherpesvirus 1; experiment: Antiviral activity against kinase-deficient acyclovir-resistant HSV-1 KOS by cell based assay; assay type: functional, organism-based
[19] = system: Human alphaherpesvirus 2; experiment: Antiviral activity against HSV-2 Lyons by cell based assay; assay type: functional, organism-based
[20] = system: Human alphaherpesvirus 1; experiment: Antiviral activity against HSV-1 KOS by cell based assay; assay type: functional, organism-based

Compound | IC50 [1] [µM] | IC50 [2] [µM] | IC50 [3] [µM] | Activity [4] | Activity [5] | Activity [6] | Activity [7] | Activity [8] | Activity [9] | Activity [10] | Activity [11] | Activity [12] | Activity [13] | Activity [14] | Activity [15] | Activity [16] | Activity [17] | Activity [18] | Activity [19] | Activity [20]
CCCCCC#Cc1cn([C@@H]2O[C@H](CO)[C@@H](O)[C@H](O)[C@H]2O)c(=O)nc1N | ≥ 250 | ≥ 250 | > 250 | – | – | – | – | – | – | – | – | – | – | – | – | – | – | – | – | –
CCCC#Cc1cn([C@@H]2O[C@H](CO)[C@@H](O)[C@H](O)[C@H]2O)c(=O)[nH]c1=O | 95 | 115 | 123 | – | – | – | – | – | – | – | – | – | – | – | – | – | – | – | – | –
CCCCCc1ccc(C#Cc2cn([C@@H]3O[C@H](CO)[C@@H](O)[C@H](O)[C@H]3O)c(=O)nc2N)cc1 | 43 | 132 | 115 | – | – | – | – | – | – | – | – | – | – | – | – | – | – | – | – | –
CC(C)(C)c1ccc(C#Cc2cn([C@@H]3O[C@H](CO)[C@@H](O)[C@H](O)[C@H]3O)c(=O)nc2N)cc1 | 140 | > 250 | > 250 | – | – | – | – | – | – | – | – | – | – | – | – | – | – | – | – | –
CCCc1cc2cn([C@@H]3O[C@H](CO)[C@@H](O)[C@H](O)[C@H]3O)c(=O)nc2o1 | 125 | 132 | 173 | inactive | inactive | inactive | inactive | inactive | inactive | inactive | inactive | inactive | inactive | inactive | inactive | inactive | inactive | inactive | inactive | inactive
C#Cc1cn([C@@H]2O[C@H](CO)[C@@H](O)[C@H](O)[C@H]2O)c(=O)nc1N | ≥ 250 | ≥ 250 | > 250 | – | – | – | – | – | – | – | – | – | – | – | – | – | – | – | – | –
CC(C)(C)c1ccc(C#Cc2cn([C@@H]3O[C@H](CO)[C@@H](O)[C@H](O)[C@H]3O)c(=O)nc2O)cc1 | 37 | 185 | > 250 | – | – | – | – | – | – | – | – | – | – | – | – | – | – | – | – | –
C[n+]1ccccc1C#Cc1cn([C@@H]2O[C@H](CO)[C@@H](O)[C@H](O)[C@H]2O)c(=O)[nH]c1=O | 244 | 152 | > 250 | inactive | inactive | inactive | inactive | inactive | inactive | inactive | inactive | inactive | inactive | inactive | inactive | inactive | inactive | inactive | inactive | inactive
CCCCCC#Cc1cn([C@@H]2O[C@H](CO)[C@@H](O)[C@H](O)[C@H]2O)c(=O)[nH]c1=O | 29 | 22 | 26 | – | – | – | – | – | – | – | – | – | – | – | – | – | – | – | – | –
CCCCCc1cc2cn([C@@H]3O[C@H](CO)[C@@H](O)[C@H](O)[C@H]3O)c(=O)nc2o1 | > 250 | ≥ 250 | > 250 | inactive | inactive | inactive | inactive | inactive | inactive | inactive | inactive | inactive | inactive | inactive | inactive | inactive | inactive | inactive | inactive | inactive
O=c1nc(O)c(C#Cc2ccccc2)cn1[C@@H]1O[C@H](CO)[C@@H](O)[C@H](O)[C@H]1O | 5.4 | 6.2 | 5.2 | inactive | inactive | inactive | inactive | inactive | inactive | inactive | inactive | inactive | inactive | inactive | inactive | inactive | inactive | inactive | inactive | inactive
C[n+]1cccc(C#Cc2cn([C@@H]3O[C@H](CO)[C@@H](O)[C@H](O)[C@H]3O)c(=O)[nH]c2=O)c1 | > 250 | > 250 | > 250 | inactive | inactive | inactive | inactive | inactive | inactive | inactive | inactive | inactive | inactive | inactive | inactive | inactive | inactive | inactive | inactive | inactive
CCCCCc1ccc(C#Cc2cn([C@@H]3O[C@H](CO)[C@@H](O)[C@H](O)[C@H]3O)c(=O)nc2O)cc1 | 31 | 70 | 81 | – | – | – | – | – | – | – | – | – | – | – | – | – | – | – | – | –
CCCC#Cc1cn([C@@H]2O[C@H](CO)[C@@H](O)[C@H](O)[C@H]2O)c(=O)nc1N | 191 | ≥ 250 | > 250 | – | – | – | – | – | – | – | – | – | – | – | – | – | – | – | – | –
CC(=O)OC[C@H]1O[C@@H](n2cc(C#Cc3ccccn3)c(=O)[nH]c2=O)[C@H](OC(C)=O)[C@@H](OC(C)=O)[C@@H]1OC(C)=O | 90 | 115 | 139 | – | – | – | – | – | – | – | – | – | – | – | – | – | – | – | – | –
O=c1[nH]c(=O)n([C@@H]2O[C@H](CO)[C@@H](O)[C@H](O)[C@H]2O)cc1C#Cc1ccccn1 | 66 | 71 | 79 | inactive | inactive | inactive | inactive | inactive | inactive | inactive | inactive | inactive | inactive | inactive | inactive | inactive | inactive | inactive | inactive | inactive
Nc1nc(=O)n([C@@H]2O[C@H](CO)[C@@H](O)[C@H](O)[C@H]2O)cc1C#Cc1ccccc1 | 201 | ≥ 250 | > 250 | – | – | – | – | – | – | – | – | – | – | – | – | – | – | – | – | –
O=c1[nH]c(=O)n([C@@H]2O[C@H](CO)[C@@H](O)[C@H](O)[C@H]2O)cc1C#Cc1cccnc1 | > 250 | > 250 | > 250 | inactive | inactive | inactive | inactive | inactive | inactive | inactive | inactive | inactive | inactive | inactive | inactive | inactive | inactive | inactive | inactive | inactive
CC(=O)OC[C@H]1O[C@@H](n2cc(C#Cc3cccnc3)c(=O)[nH]c2=O)[C@H](OC(C)=O)[C@@H](OC(C)=O)[C@@H]1OC(C)=O | > 250 | > 250 | 182 | – | – | – | – | – | – | – | – | – | – | – | – | – | – | – | – | –
CC(=O)OC[C@H]1O[C@@H](n2cc(C#Cc3ccc[n+](C)c3)c(=O)[nH]c2=O)[C@H](OC(C)=O)[C@@H](OC(C)=O)[C@@H]1OC(C)=O | > 250 | > 250 | > 250 | – | – | – | – | – | – | – | – | – | – | – | – | – | – | – | – | –
CC(=O)OC[C@H]1O[C@@H](n2cc(C#Cc3cccc[n+]3C)c(=O)[nH]c2=O)[C@H](OC(C)=O)[C@@H](OC(C)=O)[C@@H]1OC(C)=O | 232 | 203 | > 250 | – | – | – | – | – | – | – | – | – | – | – | – | – | – | – | – | –
O=c1[nH]c(=O)n([C@@H]2O[C@H](CO)[C@@H](O)[C@H](O)[C@H]2O)cc1CCc1ccccc1 | 43 | 300 | 244 | – | – | – | – | – | – | – | – | – | – | – | – | – | – | – | – | –
C#Cc1cn([C@@H]2O[C@H](CO)[C@@H](O)[C@H](O)[C@H]2O)c(=O)[nH]c1=O | 231 | 141 | > 250 | – | – | – | – | – | – | – | – | – | – | – | – | – | – | – | – | –
